Test results from patent US11021481B2, “Substituted isoindolin-1-ones and 2,3-dihydro-1h-pyrrolo[3,4-c]pyridin-1-ones as HPK1 antagonists” (Nimbus Saturn, Inc., priority 2019, dated 2021).

target: HPK1 (Homo sapiens (Human), UniProt Q92918); experiment: HPK1 biochemical enzyme assay (microfluidic mobility shift assay); conditions: 1.5 nM HPK1, ATP 1 mM final, 30 min preincubation, 60 min at RT, Caliper EZ Reader; read-out: HPK1 1000UMATP caliper IC50
In short: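 Ten-point compound titrations (top 3 μM final) preincubated 30 min with HPK1 and substrate, then reaction started with 1 mM ATP and 1 μM substrate, 5 mM MgCl2. After 60 min at RT, reaction terminated and product measured by microfluidic mobility shift.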

Sequence of HPK1 (Q92918 whole entry): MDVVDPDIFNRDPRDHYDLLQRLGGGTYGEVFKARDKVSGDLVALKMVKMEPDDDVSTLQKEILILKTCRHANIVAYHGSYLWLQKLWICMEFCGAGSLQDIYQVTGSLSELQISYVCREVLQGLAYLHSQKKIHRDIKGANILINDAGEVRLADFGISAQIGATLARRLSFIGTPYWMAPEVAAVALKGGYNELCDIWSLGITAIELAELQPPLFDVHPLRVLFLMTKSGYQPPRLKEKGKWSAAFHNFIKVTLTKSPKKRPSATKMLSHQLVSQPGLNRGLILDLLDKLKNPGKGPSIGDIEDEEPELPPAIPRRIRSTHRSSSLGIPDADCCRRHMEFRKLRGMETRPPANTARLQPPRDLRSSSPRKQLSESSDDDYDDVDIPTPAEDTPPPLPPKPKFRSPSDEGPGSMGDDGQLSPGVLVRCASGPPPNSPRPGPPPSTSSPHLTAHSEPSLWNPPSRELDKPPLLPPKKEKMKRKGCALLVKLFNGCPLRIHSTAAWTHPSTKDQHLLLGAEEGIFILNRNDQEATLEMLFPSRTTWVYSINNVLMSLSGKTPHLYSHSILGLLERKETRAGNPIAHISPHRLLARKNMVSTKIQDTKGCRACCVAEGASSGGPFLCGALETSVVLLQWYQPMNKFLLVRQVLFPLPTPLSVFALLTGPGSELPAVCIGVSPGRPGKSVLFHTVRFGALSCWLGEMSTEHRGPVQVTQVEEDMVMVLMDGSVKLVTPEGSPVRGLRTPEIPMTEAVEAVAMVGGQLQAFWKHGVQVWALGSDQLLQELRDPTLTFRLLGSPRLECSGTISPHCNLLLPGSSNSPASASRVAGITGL

O=C1NCc2c(-c3c[nH]c4ccccc34)ncc(Nc3ccc(N4CCC(F)(F)CC4)cn3)c21 [I-12, 7-[[5-(4,4-difluoro-1-piperidyl)-2-pyridyl]amino]-4-(1H-indol-3-yl)-2,3-dihydropyrrolo [3,4-c]pyridin-1-one] and CN1CCN(c2ccc(Nc3cnc(-c4cn(C)c5ncccc45)c4c3C(=O)NC4)nc2)CC1 [I-14, 7-[[5-(4-methylpiperazin-1-yl)-2-pyridyl]amino]-4-(1-methylpyrrolo [2,3-b]pyridin-3-yl)-2,3-dihydropyrrolo [3,4-c]pyridin-1-one] cannot be ordered by IC50: over 1000 nM for the first, over 1000 nM for the second.

O=C1NCc2c(-c3cnc4cc(F)ccn34)ccc(Nc3cccc(N4CCC5CNCC54)n3)c21 (centres unmarked) [I-493] and CN(C)C1CN(c2nc(Nc3ccc(-c4cnc5cc(F)ccn45)c4c3C(=O)NC4)ccc2C2CCOC2)C1 (stereo in doubt) [I-787, (R)-7-((6-(3-(dimethylami-no)azetidin-1-yl)-5-(tetrahydrofuran-3-yl)pyridin-2-yl)amino)-4-(7-fluoroimidazo [1,2-a]pyridin-3-yl)isoindolin-1-one] cannot be ordered by IC50: under 100 nM for the first, under 100 nM for the second.

CN(C)Cc1nc(Nc2cnc(-c3ccnc4c3ccn4C)c3c2C(=O)NC3)ccc1N1CCOC2(CC2)C1 [I-839, 7-((6-((dimethylamino)-methyl)-5-(4-oxa-7-azaspiro[2.5]octan-7-yl)pyridin-2-yl)amino)-4-(1-methyl-1H-pyrrolo[2,3-b]pyridin-4-yl)-2,3-dihydro-1H-pyrrolo[3,4-c]pyridin-1-one] and Cn1ccc2c(-c3ncc(Nc4ccc([C@@H]5CCOC5)c(CN)n4)c4c3CNC4=O)ccnc21 [I-836, (S)-7-((6-(aminomethyl)-5-(THF-3-yl)pyridin-2-yl)amino)-4-(1-methyl-1H-pyrrolo[2,3-b]pyridin-4-yl)-2,3-dihydro-1H-pyrrolo[3,4-c]pyridin-1-one] cannot be ordered by IC50: under 100 nM for the first, under 100 nM for the second.

CC(C)(O)[C@H]1CCCN(c2ccc(Nc3cnc(-c4cnn5c4CCCC5)c4c3C(=O)NC4)nc2)C1 [I-355, (S)-7-((5-(3-(2-hydroxy-propan-2-yl)piperidin-1-yl)pyridin-2-yl)amino)-4-(4,5,6,7-tetrahydropyra-zolo[1,5-a]pyridin-3-yl)-2,3-dihydro-1H-pyrrolo[3,4-c]pyridin-1-one] and CN1CCN(c2ccc(Nc3cnc(-c4cnc5c(F)cccn45)c4c3C(=O)NC4)nc2)C[C@H]1C(C)(C)O (stereo in doubt) [I-621, (R]-4-(8-fluoroimidazo [1,2-a]pyridin-3-yl)-7-((5-(3-(2-hydroxypropan-2-yl)-4-methylpiperazin-1-yl)pyridin-2-yl)amino)-2.3-dihydro-1H-pyrrolo[3,4-c]pyridin-1-one] cannot be ordered by IC50: under 100 nM for the first, under 100 nM for the second.

CN(C)CCN(C)c1cccc(Nc2cnc(-c3ccnc4c3ccn4C)c3c2C(=O)NC3)n1 [I-246, 7-[[6-[2-(dimethylami-no)ethyl-methyl-amino]-2-pyridyl]-amino]-4-(1-methylpyrrolo [2,3-b]pyridin-4-yl)-2,3-dihydropyrrolo [3,4-c]pyridin-1-one] and Cn1ccc2c(-c3ncc(Nc4cccc(N5C[C@H](N)CC5=O)n4)c4c3CNC4=O)ccnc21 [I-691, (R)-7-((6-(4-amino-2-oxopyrrolidin-1-yl)pyridin-2-yl)amino)-4-(1-methyl-1H-pyrrolo[2,3-b]pyridin-4-yl)-2,3-dihydro-1H-pyrrolo[3,4-c]pyridin-1-one] cannot be ordered by IC50: under 100 nM for the first, under 100 nM for the second.

CN(C)Cc1nc(Nc2cnc(-c3ccnc4[nH]ccc34)c3c2C(=O)NC3)ccc1[C@@H]1CCOC1 [I-766, (S)-7-((6-((dimethylamino)-methyl)-5-(tetrahydrofuran-3-yl)pyridin-2-yl)amino)-4-(1H-pyrrolo[2,3-b]pyridin-4-yl)-2,3-dihydro-1H-pyrrolo[3,4-c]pyridin-1-one] and Cn1ccc2c(-c3ncc(Nc4ccc([C@@H]5CCOC5)c(CN5CC[C@@H](O)C5)n4)c4c3CNC4=O)ccnc21 [I-809, 7-((6-(((R)-3-hydroxypyrroli-din-1-yl)methyl)-5-((S)-THF-3-yl)pyridin-2-yl)amino)-4-(1-methyl-1H-pyrrolo[2,3-b]pyridin-4-yl)-2,3-dihydro-1H-pyrrolo[3,4-c]pyridin-1-one] cannot be ordered by IC50: under 100 nM for the first, under 100 nM for the second.

Compared with Cn1ccc2c(-c3ncc(Nc4ccc([C@H]5CCOC5)c(CN5CC[C@H](O)C5)n4)c4c3CNC4=O)ccnc21 [I-812, 7-((6-(((S)-3-hydroxypyrroli-din-1-yl)methyl)-5-((R)-THF-3-yl)pyridin-2-yl)amino)-4-(1-methyl-1H-pyrrolo[2,3-b]pyridin-4-yl)-2,3-dihydro-1H-pyrrolo[3,4-c]pyridin-1-one], Cn1ccc2c(-c3ncc(Nc4cccc(N5CCCNCC5)n4)c4c3CNC4=O)ccnc21 [I-240, 7-[[6-(1,4-diazepan-1-yl)-2-pyridyl]amino]-4-(1-methylpyrrolo [2,3-b]pyridin-4-yl)-2,3-dihydropyrrolo [3,4-c]pyridin-1-one] is higher in IC50: under 100 nM for the first, 100 to 1000 nM for the second.

O=C1NCc2c(-c3cnc4cc(F)ccn34)ccc(Nc3ccc([C@@H]4CCOC4)c(CN4CCC(F)(F)C4)n3)c21 [I-718, (S)-7-((6-((3,3-difluoropyrro-lidin-1-yl)methyl)-5-(tetrahydrofuran-3-yl)pyridin-2-yl)amino)-4-(7-fluoroimidazo [1,2-a]pyridin-3-yl)isoindolin-1-one] and COC1CN(Cc2nc(Nc3ccc(-c4cnc5cc(F)ccn45)c4c3C(=O)NC4)ccc2[C@@H]2CCOC2)C1 [I-549, (S)-4-(7-fluoroimidazo [1,2-a]pyridin-3-yl)-7-((6-((3-methoxyaze-tidin-1-yl)methyl)-5-(tetrahydrofuran-3-yl)pyridin-2-yl)amino)isoin-dolin-1-one] cannot be ordered by IC50: under 100 nM for the first, under 100 nM for the second.

Compared with Cn1ccc2c(-c3ccc(Nc4ccc(C5CCNCC5)cn4)c4c3CNC4=O)ccnc21 [I-96, 4-(1-methylpyrrolo [2,3-b]pyridin-4-yl)-7-[[5-(4-piperidyl)-2-pyridyl]amino] isoindolin-1-one], CN1CCN(c2ccc(Nc3ccc(-c4ccnc5c4cnn5C)c4c3C(=O)NC4)nc2)CC1 [I-61, 7-[[5-(4-methylpiperazn-1-yl)-2-pyridyl]amino]-4-(1-methylpyrazolo [3,4-b]pyridin-4-yl)isoindolin-1-one] is higher in IC50: under 100 nM for the first, 100 to 1000 nM for the second.

CCc1[nH]c2ccccc2c1-c1ccc(Nc2ccc(N3CCN(C)CC3)cn2)c2c1CNC2=O [I-34, 4-(2-ethyl-1H-indol-3-yl)-7-[[5-(4-methylpiperazin-1-yl)-2-pyridyl]amino] isoindolin-1-one] and Cc1csc2c(-c3ccc(Nc4ccc(N5CCC(O)CC5)cn4)c4c3CNC4=O)ccnc12 [I-361, 7-((5-(4-hydroxypip-eridin-1-yl)pyridin-2-yl)amino)-4-(3-methylthieno [3,2-b]pyridin-7-yl)isoindolin-1-one] cannot be ordered by IC50: under 100 nM for the first, under 100 nM for the second.

Cc1ccc2c(-c3ccc(Nc4ccc(C5CCOC5)c(CN(C)C)n4)c4c3CNC4=O)cnn2c1 (stereo in doubt) [I-731, (S)-7-((6-((dimethylamino)-methyl)-5-(tetrahydrofuran-3-yl)pyridin-2-yl)amino)-4-(6-methylpyra-zolo[1,5-a]pyridin-3-yl)isoindolin-1-one] and CN(C)Cc1nc(Nc2ccc(-c3cnc4cc(F)ccn34)c3c2C(=O)NC3)ccc1N1CCC[C@@H](C(C)(C)O)C1 [I-745, (R)-7-((6-((dimethylamino)-methyl)-5-(3-(2-hydroxypropan-2-yl)piperidin-1-yl)pyridin-2-yl)amino)-4-(7-fluoroimidazo [1,2-a]pyridin-3-yl)isoindolin-1-one] cannot be ordered by IC50: under 100 nM for the first, under 100 nM for the second.

CN1CCCC1C1(O)CCN(c2ccc(Nc3ccc(-c4cnc5cc(F)ccn45)c4c3C(=O)NC4)nc2)CC1 (centres unmarked) [I-677, 4-(7-fluoroimidazo [1,2-a]pyridin-3-yl)-7-((5-(4-hydroxy-4-(1-methylpyrrol-idin-2-yl)piperidin-1-yl)pyridin-2-yl)amino)isoin-dolin-1-one] and CN1CCO[C@]2(CCCN(c3ccc(Nc4ccc(-c5cnc6cc(F)ccn56)c5c4C(=O)NC5)nc3)C2)C1 [I-506a, (R)-4-(7-fluoroimidazo [1,2-a]pyridin-3-yl)-7-((5-(4-methyl-1-oxa-4,8-diazaspiro[5.5]undecan-8-yl)pyridin-2-yl)amino)isoin-dolin-1-one] cannot be ordered by IC50: under 100 nM for the first, under 100 nM for the second.

C[C@H]1C[C@H](O)CCN1c1ccc(Nc2ccc(-c3cnc4cnccn34)c3c2C(=O)NC3)nc1 [I-352, 7-((5-((2S,4R)-4-hydroxy-2-methylpiperidin-1-yl)pyridin-2-yl)amino)-4-(imidazo[1,2-a]pyrazin-3-yl)isoindolin-1-one] and CC(C)(O)[C@H]1COCCN(c2ccc(Nc3ccc(-c4cnc5cc(F)ccn45)c4c3C(=O)NC4)nc2)C1 [I-626, (R)-4-(7-fluoroimidazo [1,2-a]pyridin-3-yl)-7-((5-(6-(2-hydroxypropan-2-yl)-1,4-oxazepan-4-yl)pyridin-2-yl)amino)isoin-dolin-1-one] cannot be ordered by IC50: under 100 nM for the first, under 100 nM for the second.

O=C1NCc2c(-c3cnc4cc(F)ccn34)ccc(Nc3ccc(N4CCO[C@H](CN5CC(F)C5)C4)cn3)c21 [I-482, 7-[[5-[(2R)-2-[(3-fluoroazetidin-1-yl)methyl]mor pholin-4-yl]-2-pyridyl]amino] 4-(7-fluoroimidazo [1,2-a]pyridin-3-yl)isoindolin-1-one] and CN(C)[C@@H]1COCCN(c2ccc(Nc3ccc(-c4cnc5cc(F)ccn45)c4c3C(=O)NC4)nc2)C1 [I-518, (S)-7-((5-(6-(dimethylami-no)-1,4-oxazepan-4-yl)pyridin-2-yl)amino)-4-(7-fluoroimidazo [1,2-a]pyridin-3-yl)isoindolin-1-one] cannot be ordered by IC50: under 100 nM for the first, under 100 nM for the second.

CC(C)(O)[C@H]1CN(c2ccc(Nc3cnc(-c4cnc5c(F)cccn45)c4c3C(=O)NC4)nc2)CCO1 [I-458, 4-(8-fluoroimidazo [1,2-a]pyridin-3-yl)-7-[[5-[(2R)-2-(1-hydroxy-1-methyl-ethyl)morpholin-4-yl]-2-pyridyl]amino]-2,3-dihydropyrrolo [3,4-c]pyridin-l-one] was tested, and the IC50 was under 100 nM.
